Consider five compounds from US12568971B2, “Degradative method” (Catexel Technologies Limited, priority 2020, dated 2026).

For data set [1] the following is noted: cited from earlier work.
Data set [2] in a line: Dynamic viscosity of alginate solution after treatment (alginate depolymerisation), Brookfield cone/plate viscometer. The conditions noted are these: 60 min at 50° C. How it is done:
The bottle was placed in a warm water bath (50° C.) for 60 minutes before being removed and cooled in an ice bath. Finally, the dynamic viscosity was determined using a Brookfield viscosity meter as outlined below. Note 1: A 2 mM solution of [[…])2 (see description of stock 12 above) was mixed with equivalent volume of the 2 mM ascorbic acid stock solution (stock solution 7). Upon contact with the ascorbic acid, the catalyst turned from orange/red to red/purple. Note 2: 0.5 mL of both Me3-TACN ligand (stock solution 10) and MnSO4·H2O (stock solution 8) were mixed, stirred and used as a source of catalyst to be placed in the alginate solution. The dynamic viscosity of the samples was measured using a Brookfield HBDV-II cone/plate viscosity meter equipped with a spindle CPE-40. The viscometer was linked to a water bath to maintain the temperature at 25° C. The apparatus was controlled via computer (external mode) using the Rheocalc software. Initially, the viscometer was zeroed without spindle. Then, the spindle CPE-40 was installed and the gap between the bottom of the cone and the top of the cup was set according to the recommendations given by Brookfield. 0.5 mL of the treated alginate solution was placed in the cup of the viscometer using a disposable plastic syringe before the apparatus was closed and the test program launched. […] Results.

For data set [3] the following is noted: at 20° C.; cited from earlier work.

As to `O=C(O)[C@@H]1O[C@@H](O)[C@@H](O)[C@@H](O)[C@@H]1O` [α-L-guluronic acid], the pKa in data set [1] is 3.65.
Consider `CC(=O)[O-].CN1CCN(C)CCN(CCN2CCN(C)CCN(C)CC2)CC1.[Cl-].[Cl-].[Mn+3].[Mn+4].[O-2].[O-2]` [[Mn2(μ-O)2(μ-CH3COO)(Me4-DTNE)]^2+, [Mn2(μ-O)2(μ-CH3COO)(Me4DTNE)]Cl2], for which the “Dynamic Viscosity” value in data set [2] (2.5 μM, pH 7.5, 10 mM H2O2, no buffer) is given as 82.3 mPa · s; in data set [2] (2.5 μM, pH 8.0, 10 mM H2O2, no buffer), 82.9 mPa · s; in data set [2] (2.5 μM, pH 8.5, 10 mM H2O2, no buffer), 80.7 mPa · s; in data set [2] (5.0 μM, pH 7.5, 10 mM H2O2, no buffer) it was 49.4 mPa · s; in data set [2] (5.0 μM, pH 8.0, 10 mM H2O2, no buffer), 53.7 mPa · s; in data set [2] (5.0 μM, pH 8.5, 10 mM H2O2, no buffer) it was 51.5 mPa · s. In data set [2] (5.0 μM, pH 9.0, 10 mM H2O2, no buffer), the “Dynamic Viscosity” value was found to be 62.9 mPa · s.
Consider `O=C(O)[C@H]1O[C@@H](O)[C@@H](O)[C@@H](O)[C@@H]1O` [β-D-mannuronic acid], for which, in data set [1], the pKa is given as 3.38.
[Mn^IVMn^IV(μ-O)3(Me3-TACN)2][PF6]2: in data set [3], the water solubility was 10.8 mg/mL.
For `O=S(=O)([O-])[O-].[Mn+2]` [MnSO4, manganese sulfate], the “Dynamic Viscosity” value is listed as 85.4 mPa · s in data set [2] (Entry 1: 10 μM MnSO4, 10 μM Me3TACN ligand, 20 mM H2O2, 4.7 mM NaHCO3, pH 10); 76.1 mPa · s in data set [2] (Entry 2: 10 μM MnSO4, 20 μM Me3TACN ligand, 20 mM H2O2, 4.7 mM NaHCO3, pH 10); 63.4 mPa · s in data set [2] (Entry 3: 10 μM MnSO4, 40 μM Me3TACN ligand, 20 mM H2O2, 4.7 mM NaHCO3, pH 10).

As a reminder, the pKa is the negative logarithm of the acid dissociation constant.
